Measurements from US20120172397A1, “HEXAHYDROCYCLOPENTA[f]INDAZOLE 5-YL ETHANOLS AND DERIVATIVES THEREOF AS SELECTIVE GLUCOCORTICOID RECEPTOR MODULATORS” (MERCK SHARP & DOHME CORP., priority 2009, published 2012).

Target: T1, glucocorticoid receptor (GR) (Homo sapiens, UniProt P04150)
T1 construct: Preparation of HeLa Cell Lysate; endogenous in cells; host or cells: HeLa (ATCC) cell lysate supernatant
T1 sequence (P04150 1-777): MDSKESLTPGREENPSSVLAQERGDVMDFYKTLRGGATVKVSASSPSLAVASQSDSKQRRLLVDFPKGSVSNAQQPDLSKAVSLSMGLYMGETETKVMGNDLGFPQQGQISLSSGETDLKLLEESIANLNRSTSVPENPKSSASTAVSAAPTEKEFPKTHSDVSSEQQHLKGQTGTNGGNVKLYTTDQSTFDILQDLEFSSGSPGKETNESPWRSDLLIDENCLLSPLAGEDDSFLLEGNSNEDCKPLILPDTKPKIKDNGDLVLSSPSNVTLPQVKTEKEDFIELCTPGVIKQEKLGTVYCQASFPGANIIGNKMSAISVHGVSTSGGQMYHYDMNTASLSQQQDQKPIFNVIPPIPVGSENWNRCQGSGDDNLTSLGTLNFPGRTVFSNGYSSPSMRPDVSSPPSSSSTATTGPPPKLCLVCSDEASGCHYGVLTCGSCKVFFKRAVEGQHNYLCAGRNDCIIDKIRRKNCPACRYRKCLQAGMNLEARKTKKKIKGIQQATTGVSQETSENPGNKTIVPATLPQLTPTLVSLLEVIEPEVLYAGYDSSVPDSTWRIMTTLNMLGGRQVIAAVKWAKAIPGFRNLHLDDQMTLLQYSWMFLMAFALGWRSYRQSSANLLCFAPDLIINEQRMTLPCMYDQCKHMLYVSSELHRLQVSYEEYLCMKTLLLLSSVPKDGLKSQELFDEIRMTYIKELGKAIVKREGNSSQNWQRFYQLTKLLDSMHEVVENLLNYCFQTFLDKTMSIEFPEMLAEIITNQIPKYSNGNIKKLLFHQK
Experiment: GR Ligand Binding Assay (BIND), 3H-dexamethasone displacement in HeLa cell lysate
Settings: 3H-DEX trace, 4° C. overnight
Description: Binding Buffer: TEGM (10 mM Tris-HCl, 1 mM EDTA, 10% glycerol, 1 rnM beta-mecaptoethanol, 10 mM Sodium Molybdate, pH 7.2)
50% HAP Slurry: Calbiochem Hydroxylapatite, Fast Flow, in 10 mM Iris, pH 8.0 and 1 mM EDTA.
Wash Buffer: 40 mM Tris, pH7.5, 100 mM KCl, 1 mM EDTA and 1 mM EGTA. 95% EtOH
Dexmethasone-methyl-^3H, (DEX*); (Amersham cat# TRK645)
Dexamethasone(DEX) (Sigma, cat# D1756):
Cells (Hall R. E., et al., European Journal of Cancer, 30A: 484-490 (1994)) HeLa (ATCC) cultured in RPMI 1640 (Gibco 11835-055) containing 20 mM Hepes, 4 mM L-glu, 10 μg/ml of human insulin (Sigma, I-0259), 10% FBS and 20 μg/ml of Gentamicin (Gibco#15710-072) are rinsed twice in PBS. Phenol red-free Trypsin-EDTA is diluted in the same PBS 1:10. The cell layers are rinsed with 1× Trypsin, extra Trypsin is poured out, and the cell layers are incubated at 37° C. for ˜2 min. The flask is tapped and checked for signs of cell detachment. Once the cells begin to slide off the flask, the complete media is added. The cells are counted at this point, then diluted to the appropriate concentration and split into flasks or dishes for further culturing (Usually 1:3 to 1:6 dilution).
When the cells are 70 to 85% confluent, they are detached as described above, and collected by centrifuging at 1000 g for 10 minutes at 4° C. The cell pellet is washed twice with TEGM (10 mM Tris-HCl, 1 mM EDTA, 10% glycerol, 1 mM beta-mercaptoethanol, 10 mM Sodium Molybdate, pH 7.2). After the final wash, the cells are resuspended in TEGM at a concentration of 10^7 cells/mL. The cell suspension is snap frozen in liquid nitrogen or ethanol/dry ice bath and transferred to −80° C. freezer on dry ice. Before setting up the binding assay, the frozen samples are left on ice-water to just thaw (˜1 hr). Then the samples are centrifuged at 12,500 g to 20,000 g for 30 min at 4° C. The supernatant is used to set-up assay right away. If using 50 μL of supernatant, the test compound can be prepared in 50 μL of the TEGM buffer.
1× TEGM buffer is prepared, and the isotope-containing assay mixture is prepared in the following order: EtOH (2% final concentration in reaction), ^3H-DEX (Amersham Biosciences) and 1× TEGM. [e.g. For 100 samples, 200 μL (100×2) of EtOH+4.25 μL of 1:10 ^3H-Dex stock+2300 μL (100×23) 1× TEGM]. The compound is serially diluted, e.g., if starting final conc. is 1 μM, and the compound is in 25 μL of solution, for duplicate samples, 75 μL of 4×1 μM solution is made and 3 μL of 100 μM is added to 72 μL of buffer, and 1:5 serial dilution.
25 μL of ^3H-DEX (6 nM) trace and 25 μL compound solution are first mixed together, followed by addition of 50 μL receptor solution. The reaction is gently mixed, spun briefly at about 200 rpm and incubated at 4° C. overnight. 100 μL of 50% HAP slurry is prepared and added to the incubated reaction which is then vortexed and incubated on ice for 5 to 10 minutes. The reaction mixture is vortexed twice more to resuspend HAP while incubating reaction. The samples in 96-well format are then washed in wash buffer using The FilterMate™ Universal Harvester plate washer (Packard). The washing process transfers HAP pellet containing ligand-bound expressed receptor to Unifilter-96 GF/B filter plate (Packard). The HAP pellet on the filter plate is incubated with 50 μL of MICROSCINT (Packard) scintillint for 30 minutes before being counted on the TopCount microscintillation counter (Packard). IC50s are calculated using DEX as a reference.

| SMILES | Ki |
| --- | --- |
| COc1cccc(C(O)C[C@H]2CCC3=Cc4c(cnn4-c4cccnc4)C[C@@]32C)c1 (single isomer, unassigned) [Example 4a] | 3.6 nM |
| C[C@]12Cc3cnn(-c4cccnc4)c3C=C1CC[C@@H]2CC(O)c1ccccn1 (single isomer, unassigned) [Example 6a] | 346 nM |
| CC(O)(C[C@H]1CCC2=Cc3c(cnn3-c3cccnc3)C[C@@]21C)c1ccccc1 (single isomer, unassigned) [Example 7a] | 2.3 nM |
| CC(O)(C[C@H]1CCC2=Cc3c(cnn3-c3cccnc3)C[C@@]21C)c1ccccc1 (single isomer, unassigned) [Example 7b] | 4.8 nM |
| C[C@]12Cc3cnn(-c4cccnc4)c3C=C1CC[C@@H]2CC(O)c1ccccn1 (single isomer, unassigned) [Example 6b] | 151 nM |
| COc1cccc(C(O)C[C@H]2CCC3=Cc4c(cnn4-c4cccnc4)C[C@@]32C)c1 (single isomer, unassigned) [Example 4b] | 8.4 nM |
| COc1ccc(C(O)C[C@H]2CCC3=Cc4c(cnn4-c4cccnc4)C[C@@]32C)cn1 (stereo partly drawn) [Example 3, 1-(6-methoxypyridin-3-yl)-2-[(4αR,5R)-4α-methyl-1-(pyridin-3-yl)-1,4,4α,5,6,7-hexahydrocyclopenta[f]indazol-5-yl] ethanol] | 8.5 nM |
| COc1ccccc1C(O)C[C@H]1CCC2=Cc3c(cnn3-c3cccnc3)C[C@@]21C (single isomer, unassigned) [Example 2a] | 7.3 nM |
| COc1ccccc1C(O)C[C@H]1CCC2=Cc3c(cnn3-c3cccnc3)C[C@@]21C (single isomer, unassigned) [Example 2b] | 9 nM |
| C[C@]12Cc3cnn(-c4cccnc4)c3C=C1CC[C@@H]2CC(O)c1ccccc1 (single isomer, unassigned) [Example 1a] | 3.5 nM |
| COc1ccc(C(O)C[C@H]2CCC3=Cc4c(cnn4-c4cccnc4)C[C@@]32C)cc1 (stereo partly drawn) [Example 5, 1-(4-methoxyphenyl)-2-[(4αR,5R)-4α-methyl-1-(pyridin-3-yl)-1,4,4α,5,6,7-hexahydrocyclopenta[f]indazol-5-yl] ethanol] | 0.9 nM |
| C[C@]12Cc3cnn(-c4cccnc4)c3C=C1CC[C@@H]2CC(O)c1ccccc1 (single isomer, unassigned) [Example 1b] | 8.8 nM |
